# Source: ChEMBL document CHEMBL3576802 (J Med Chem, 2015)
# Where a SMILES comes first, the peptide text is derived from it. Bridges are numbered along the chain shown (N, C = ends). [ ]: non-standard residue; d: D form. Bip = N[C@@H](Cc1ccc(-c2ccccc2)cc1)C(=O)O; 1Nal = N[C@@H](Cc1cccc2ccccc12)C(=O)O
# Columns and labels:
# Assay type in all cases: cell-based; call rule not given here
# [1] = molecular target: Melanocyte-stimulating hormone receptor (Mus musculus, UniProt Q01727); assay: Agonist activity at mouse MC1R expressed in HEK293 cells by cAMP functional bioassay
# Melanocyte-stimulating hormone receptor, sequence (Q01727 whole entry): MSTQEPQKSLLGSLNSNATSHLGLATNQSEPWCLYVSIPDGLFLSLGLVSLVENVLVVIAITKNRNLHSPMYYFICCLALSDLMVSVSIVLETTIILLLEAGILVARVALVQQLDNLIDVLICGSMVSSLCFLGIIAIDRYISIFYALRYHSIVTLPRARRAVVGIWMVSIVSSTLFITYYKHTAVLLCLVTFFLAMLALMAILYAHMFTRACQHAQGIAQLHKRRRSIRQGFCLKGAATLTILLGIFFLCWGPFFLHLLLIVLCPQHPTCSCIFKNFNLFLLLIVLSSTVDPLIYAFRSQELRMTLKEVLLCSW
# [2] = molecular target: Melanocortin receptor 4 (Mus musculus, UniProt P56450); assay: Displacement of MTII from mouse MC4R expressed in HEK293 cells; settings: for Kb: read-out: pA2 (converted)
# Melanocortin receptor 4, sequence (P56450 whole entry): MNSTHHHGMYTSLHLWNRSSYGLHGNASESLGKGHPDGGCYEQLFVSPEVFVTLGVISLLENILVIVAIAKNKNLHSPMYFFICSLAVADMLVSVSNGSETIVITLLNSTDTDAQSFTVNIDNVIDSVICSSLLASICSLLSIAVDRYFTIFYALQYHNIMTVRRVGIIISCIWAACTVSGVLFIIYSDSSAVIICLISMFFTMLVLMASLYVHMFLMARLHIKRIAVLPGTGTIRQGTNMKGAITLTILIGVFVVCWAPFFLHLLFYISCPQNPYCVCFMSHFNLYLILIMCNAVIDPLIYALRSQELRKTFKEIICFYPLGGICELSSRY
# [3] = molecular target: Melanocortin receptor 3 (Mus musculus, UniProt P33033); assay: Displacement of MTII from mouse MC3R expressed in HEK293 cells; settings: for Kb: read-out: pA2 (converted)
# Melanocortin receptor 3, sequence (P33033 whole entry): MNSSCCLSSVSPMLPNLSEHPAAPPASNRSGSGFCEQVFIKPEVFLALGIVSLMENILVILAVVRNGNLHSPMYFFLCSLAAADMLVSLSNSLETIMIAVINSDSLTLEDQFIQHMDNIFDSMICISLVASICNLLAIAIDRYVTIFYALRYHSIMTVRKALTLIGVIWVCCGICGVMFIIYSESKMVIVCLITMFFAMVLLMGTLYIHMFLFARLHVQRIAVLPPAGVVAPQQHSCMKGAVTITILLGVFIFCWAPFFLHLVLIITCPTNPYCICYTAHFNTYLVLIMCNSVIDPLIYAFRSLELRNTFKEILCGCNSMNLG
# [4] = molecular target: Melanocyte-stimulating hormone receptor (Mus musculus) (UniProt Q01727); assay: Agonist activity at mouse MC1R expressed in HEK293 cells at 100 uM by cAMP functional bioassay
# Melanocyte-stimulating hormone receptor (Mus musculus), sequence (Q01727 whole entry, looked up): as the sequence (Q01727 whole entry) above
structure (smiles),measurement,setting,value
C[C@@H]1NC(=O)[C@H](CC(N)=O)NC(=O)[C@H](Cc2cccc3ccccc23)NC(=O)[C@H](Cc2ccccc2)NC(=O)[C@H](CCCNC(=N)N)NC(=O)[C@@H]2CCCN2C(=O)[C@H]2CCCN2C(=O)[C@H](Cc2ccccc2)NC1=O,EC50,[1]; hek293,12700 nM
same,Ki,[2]; hek293,16 nM
same,pA2,[2]; hek293,7.8
C[C@@H]1NC(=O)[C@H](CC(N)=O)NC(=O)[C@H](Cc2ccccc2)NC(=O)[C@H](Cc2ccccc2)NC(=O)[C@H](CCCNC(=N)N)NC(=O)[C@@H]2CCCN2C(=O)[C@H]2CCCN2C(=O)[C@H](Cc2ccccc2)NC1=O,EC50,[1],4500 nM
C[C@H](NC(=O)[C@H](Cc1ccc(O)cc1)NC(=O)[C@@H]1CSSC[C@H](NC(=O)[C@H](Cc2ccc(O)cc2)NC(=O)[C@H](C)NC(=O)[C@@H](N)[C@@H](C)O)C(=O)N[C@@H](CCCNC(=N)N)C(=O)N[C@@H](Cc2ccccc2)C(=O)N[C@@H](Cc2ccccc2)C(=O)N[C@@H](CC(N)=O)C(=O)N[C@@H](C)C(=O)N[C@@H](Cc2ccccc2)C(=O)N1)C(=O)N[C@@H](CCCNC(=N)N)C(N)=O (H-TAYCRFFNAFCYAR-NH2; disulfide 4-11),Kb,[3],794 nM
C[C@@H]1NC(=O)[C@H](CC(N)=O)NC(=O)[C@H](Cc2ccccc2)NC(=O)[C@H](CCc2ccccc2)NC(=O)[C@H](CCCNC(=N)N)NC(=O)[C@@H]2CCCN2C(=O)[C@H]2CCCN2C(=O)[C@H](Cc2ccccc2)NC1=O,EC50,[1]; hek293,1500 nM
same,Ki,[2]; hek293,100 nM
same,pA2,[2]; hek293,7
C[C@@H]1NC(=O)[C@H](CC(N)=O)NC(=O)[C@H](Cc2ccccc2)NC(=O)[C@H](Cc2ccc3ccccc3c2)NC(=O)[C@H](CCCNC(=N)N)NC(=O)[C@@H]2CCCN2C(=O)[C@H]2CCCN2C(=O)[C@H](Cc2ccccc2)NC1=O,EC50,[1]; hek293,8800 nM
same,Ki,[2]; hek293,100 nM
same,pA2,[2]; hek293,7
C[C@@H]1NC(=O)C(CCCN)NC(=O)[C@H](Cc2ccccc2)NC(=O)[C@H](Cc2ccccc2)NC(=O)[C@H](CCCNC(=N)N)NC(=O)[C@@H]2CCCN2C(=O)[C@H]2CCCN2C(=O)[C@H](Cc2ccccc2)NC1=O (stereo not given in full),Activity,[4],30%
same,Ki,[3],160 nM
same,Kb,[3],158 nM
C[C@@H]1NC(=O)[C@H](CC(N)=O)NC(=O)[C@H](Cc2ccccc2)NC(=O)[C@H](Cc2ccc(-c3ccccc3)cc2)NC(=O)[C@H](CCCNC(=N)N)NC(=O)[C@@H]2CCCN2C(=O)[C@H]2CCCN2C(=O)[C@H](Cc2ccccc2)NC1=O (cyclo(R[Bip]FNAF[dP]P)),EC50,[1],800 nM
same,Ki,[2],160 nM
same,Kb,[2],158 nM
same,Ki,[3],630 nM
same,Kb,[3],631 nM
C[C@@H]1NC(=O)[C@H](CC(N)=O)NC(=O)[C@H](Cc2ccccc2)NC(=O)C(Cc2ccc3ccccc3c2)NC(=O)[C@H](CCCNC(=N)N)NC(=O)[C@@H]2CCCN2C(=O)[C@H]2CCCN2C(=O)[C@H](Cc2ccccc2)NC1=O (stereo not given in full),Ki,[3],1000 nM
same,Kb,[3],1000 nM
C[C@@H]1NC(=O)[C@H](CC(N)=O)NC(=O)[C@H](Cc2ccccc2)NC(=O)[C@H](Cc2ccccc2)NC(=O)[C@H](CCCNC(=N)N)NC(=O)[C@H]([C@@H](C)O)NC(=O)[C@H](Cc2ccc(O)cc2)NC(=O)[C@@H]2CCCN2C(=O)[C@H]2CCCN2C(=O)[C@H](Cc2ccc(O)cc2)NC(=O)[C@H]([C@@H](C)O)NC(=O)[C@H](Cc2ccccc2)NC1=O (cyclo(YTRFFNAFTY[dP]P)),EC50,[1],11600 nM
same,Kb,[2],158 nM
same,Kb,[3],1260 nM
C[C@@H]1NC(=O)C(CN)NC(=O)[C@H](Cc2ccccc2)NC(=O)[C@H](Cc2ccccc2)NC(=O)[C@H](CCCNC(=N)N)NC(=O)[C@@H]2CCCN2C(=O)[C@H]2CCCN2C(=O)[C@H](Cc2ccccc2)NC1=O (stereo not given in full),Activity,[4],75%
same,Ki,[3],130 nM
same,Kb,[3],126 nM
C[C@@H]1NC(=O)[C@H](CC(N)=O)NC(=O)C(Cc2cccc3ccccc23)NC(=O)[C@H](Cc2ccccc2)NC(=O)[C@H](CCCNC(=N)N)NC(=O)[C@@H]2CCCN2C(=O)[C@H]2CCCN2C(=O)[C@H](Cc2ccccc2)NC1=O (stereo not given in full),Ki,[3],2500 nM
same,Kb,[3],2510 nM
CC(=O)N[C@H](C(=O)N[C@H]1CSSC[C@@H](C(=O)N[C@@H](CCCNC(=N)N)C(N)=O)NC(=O)[C@H](Cc2ccc(O)cc2)NC(=O)[C@H]2CSSC[C@H](NC(=O)[C@H](Cc3ccc(O)cc3)NC1=O)C(=O)N[C@@H](CCCNC(=N)N)C(=O)N[C@@H](Cc1ccccc1)C(=O)N[C@@H](Cc1ccccc1)C(=O)N[C@@H](CC(N)=O)C(=O)N[C@@H](C)C(=O)N[C@@H](Cc1ccccc1)C(=O)N2)[C@@H](C)O,Kb,[3],631 nM
C[C@@H]1NC(=O)[C@H](CC(N)=O)NC(=O)[C@H](c2ccccc2)NC(=O)[C@H](Cc2ccccc2)NC(=O)[C@H](CCCNC(=N)N)NC(=O)[C@@H]2CCCN2C(=O)[C@H]2CCCN2C(=O)[C@H](Cc2ccccc2)NC1=O,EC50,[1]; hek293,21000 nM
same,Ki,[2]; hek293,1300 nM
same,pA2,[2]; hek293,5.9
C[C@@H]1NC(=O)[C@H](CC(N)=O)NC(=O)[C@H](Cc2ccccc2)NC(=O)[C@H](Cc2cccc3ccccc23)NC(=O)[C@H](CCCNC(=N)N)NC(=O)[C@@H]2CCCN2C(=O)[C@H]2CCCN2C(=O)[C@H](Cc2ccccc2)NC1=O (cyclo(R[1Nal]FNAF[dP]P)),EC50,[1]; hek293,2500 nM
same,Ki,[2]; hek293,16 nM
same,pA2,[2]; hek293,7.8
C[C@@H]1NC(=O)[C@H](CC(N)=O)NC(=O)[C@H](Cc2ccccc2)NC(=O)[C@H](c2ccccc2)NC(=O)[C@H](CCCNC(=N)N)NC(=O)[C@@H]2CCCN2C(=O)[C@H]2CCCN2C(=O)[C@H](Cc2ccccc2)NC1=O,EC50,[1]; hek293,13600 nM
C[C@@H]1NC(=O)C(CCN)NC(=O)[C@H](Cc2ccccc2)NC(=O)[C@H](Cc2ccccc2)NC(=O)[C@H](CCCNC(=N)N)NC(=O)[C@@H]2CCCN2C(=O)[C@H]2CCCN2C(=O)[C@H](Cc2ccccc2)NC1=O (stereo not given in full),Activity,[4],50%
same,Ki,[3],100 nM
same,Kb,[3],100 nM
C[C@@H]1NC(=O)[C@H](Cc2ccccc2)NC(=O)[C@H](C)NC(=O)[C@H](CC(N)=O)NC(=O)[C@H](Cc2ccccc2)NC(=O)[C@H](Cc2ccccc2)NC(=O)[C@H](CCCNC(=N)N)NC(=O)[C@H](C)NC(=O)[C@H](Cc2ccc(O)cc2)NC(=O)[C@@H]2CCCN2C(=O)[C@H]2CCCN2C(=O)[C@H](Cc2ccc(O)cc2)NC1=O,EC50,[1],17600 nM
C[C@@H]1NC(=O)[C@H](CC(N)=O)NC(=O)[C@H](Cc2ccc3ccccc3c2)NC(=O)[C@H](Cc2ccccc2)NC(=O)[C@H](CCCNC(=N)N)NC(=O)[C@@H]2CCCN2C(=O)[C@H]2CCCN2C(=O)[C@H](Cc2ccccc2)NC1=O,EC50,[1]; hek293,19600 nM
same,Ki,[2]; hek293,63 nM
same,pA2,[2]; hek293,7.2
C[C@@H]1NC(=O)CNC(=O)[C@H](Cc2ccccc2)NC(=O)[C@H](Cc2ccccc2)NC(=O)[C@H](CCCNC(=N)N)NC(=O)[C@@H]2CCCN2C(=O)[C@H]2CCCN2C(=O)[C@H](Cc2ccccc2)NC1=O,Activity,[4],50%
same,Ki,[2],4 nM
same,Kb,[2],3.98 nM
same,Ki,[3],25 nM
same,Kb,[3],25.1 nM
C[C@@H]1NC(=O)[C@H](CCCCN)NC(=O)[C@H](Cc2ccccc2)NC(=O)[C@H](Cc2ccccc2)NC(=O)[C@H](CCCNC(=N)N)NC(=O)[C@@H]2CCCN2C(=O)[C@H]2CCCN2C(=O)[C@H](Cc2ccccc2)NC1=O,Ki,[2],5 nM
same,Kb,[2],5.01 nM
same,Ki,[3],100 nM
same,Kb,[3],100 nM
C[C@@H]1NC(=O)[C@H](CC(N)=O)NC(=O)[C@H](CCc2ccccc2)NC(=O)[C@H](Cc2ccccc2)NC(=O)[C@H](CCCNC(=N)N)NC(=O)[C@@H]2CCCN2C(=O)[C@H]2CCCN2C(=O)[C@H](Cc2ccccc2)NC1=O,EC50,[1]; hek293,20300 nM
C[C@@H]1NC(=O)[C@H](CC(N)=O)NC(=O)[C@@H]2Cc3ccccc3CN2C(=O)[C@H](Cc2ccccc2)NC(=O)[C@H](CCCNC(=N)N)NC(=O)[C@@H]2CCCN2C(=O)[C@H]2CCCN2C(=O)[C@H](Cc2ccccc2)NC1=O,EC50,[1]; hek293,3900 nM
C[C@@H]1NC(=O)[C@H](CC(N)=O)NC(=O)[C@H](Cc2ccc(-c3ccccc3)cc2)NC(=O)[C@H](Cc2ccccc2)NC(=O)[C@H](CCCNC(=N)N)NC(=O)[C@@H]2CCCN2C(=O)[C@H]2CCCN2C(=O)[C@H](Cc2ccccc2)NC1=O,EC50,[1],500 nM
same,Ki,[2],160 nM
same,Kb,[2],158 nM
CC(=O)N[C@H](C(=O)N[C@H]1CSSC[C@@H](C(=O)N[C@@H](CCCNC(=N)N)C(N)=O)NC(=O)[C@H](Cc2ccc(O)cc2)NC(=O)[C@@H]2CSSC[C@H](NC(=O)[C@H](Cc3ccc(O)cc3)NC1=O)C(=O)N[C@@H](CCCNC(=N)N)C(=O)N[C@@H](Cc1ccccc1)C(=O)N[C@@H](Cc1ccccc1)C(=O)N[C@@H](CC(N)=O)C(=O)N[C@@H](C)C(=O)N[C@@H](Cc1ccccc1)C(=O)N2)[C@@H](C)O,Kb,[2],63.1 nM
CC(=O)N[C@H]1CSSC[C@@H](C(N)=O)NC(=O)[C@H](Cc2ccccc2)NC(=O)[C@H](C)NC(=O)[C@H](CC(N)=O)NC(=O)[C@H](Cc2ccccc2)NC(=O)[C@H](Cc2ccccc2)NC(=O)[C@H](CCCNC(=N)N)NC1=O,IC50,[2]; hek293,Not Active
